Assay results from publication PMC11917140, “Mining the UniProtKB/Swiss‐Prot database for antimicrobial peptides” (Protein Science : A Publication of the Protein Society, 2025).
Where two headings read alike, the source gives them in different places. Residues, ends and D or L forms follow the SMILES beside them. No end group written: not given here.

What was measured:
[1] = test system: Escherichia coli ATCC 25922; format: cell-based
Description: (§1) To measure the antimicrobial activity of our selected putative AMPs in vitro, broth microdilution assays were conducted to determine the minimum inhibitory and minimum bactericidal concentrations (MICs and MBCs, respectively), as outlined by the Clinical and Laboratory Standards Institute [CLSI] ([2015]). The adaptations for testing cationic AMPs, as described previously (Wiegand et al., [2008]), were incorporated. The selected peptides were tested against laboratory isolates of E. coli 25922 and S. aureus 29213, which were purchased from the American Type Culture Collection (ATCC; Manassas, VA, USA). Bacteria from frozen stocks were streaked onto nonselective Columbia blood agar with 5% sheep blood (Oxoid) and incubated for 18–24 h at 37°C. To ensure the uniform colony health before the assay, 2–4 colonies were streaked onto a new agar plate and incubated for another 18–24 h at 37°C on the next day. To create a standardized bacterial inoculum, isolated colonies were suspended in Mueller‐Hinton Broth (MHB; Sigma‐Aldrich, St. Louis, MO, USA). The suspension was adjusted to an optical density of 0.08–0.1 at 600 nm, which corresponds to a 0.5 McFarland standard of approximately 1–2 × 10^8 colony‐forming units (CFU)/mL. The inoculum was then diluted 1:250, resulting in a final concentration of 5 ± 3 × 10^5 CFU/mL. The target bacterial density was confirmed by measuring the total viability counts from the final tested inoculum.
(§2) The selected putative AMPs were purchased from and synthesized by GenScript (Piscataway, NJ, USA) in lyophilized format. The peptides were stored at −20°C and were suspended in sterile ultrapure water prior to testing. A two‐fold serial dilution of 1280 to 2.5 μg/mL was prepared in sterile 96‐well polypropylene microtiter plates (Greiner Bio‐One #650261, Kremsmünster, Austria). Then, 100 μL of the standardized bacterial inoculum was added to each well, resulting in a final AMP testing range of 128 to 0.25 μg/mL. The MIC values were determined as the lowest peptide concentration in which no visible bacterial growth was observed after a 20–24 h incubation at 37°C. To determine the MBC values, well contents of the MIC and the two adjacent wells containing the two‐ and four‐fold higher peptide concentrations were plated onto nonselective nutrient agar. The concentration in which 99.9% of the inoculum was killed after an incubation for 24 h at 37°C was reported as the MBC.
(§3) In our tests, we used Ranatuerin‐4—a known AMP from the American bullfrog (Goraya et al., [1998]), and an in‐house peptide [TKPKG]3 (OT15) as the positive and negative control peptides, respectively. We note that OT15 was truncated and derived from a negative control peptide [TKPKG]4 (OT20), not antimicrobial but sharing similar characteristics to AMPs, used in previous studies (Horváti et al., [2017]).

[2] = test system: Staphylococcus aureus ATCC 29213; format: cell-based
Description: as §1, §2, §3

[3] = broth microdilution (CLSI, adapted for cationic AMPs), MHB, 5 ± 3 × 10^5 CFU/mL, 20–24 h at 37°C, tested 0.25–128 μg/mL, range from three independent experiments in duplicate, one maximum and one minimum data point dropped
[4] = concentration killing 99.9% of inoculum, plated on nutrient agar, 24 h at 37°C, range from three independent experiments in duplicate, one maximum and one minimum data point dropped

Compound	MIC, E. coli ATCC 25922 ([1]; ATCC 25922)	MBC, E. coli ATCC 25922 ([1]; ATCC 25922, 24 h)	MIC, S. aureus ATCC 29213 ([2]; ATCC 29213)	MBC, S. aureus ATCC 29213 ([2]; ATCC 29213, 24 h)	MIC, E. coli ATCC 25922 [1, 3]	MIC, S. aureus ATCC 29213 [2, 3]	MBC, S. aureus ATCC 29213 [2, 4]	MBC, E. coli ATCC 25922 [1, 4]
CSCC[C@H](NC(=O)[C@H](C)NC(=O)[C@H](CCC(=O)O)NC(=O)[C@H](Cc1c[nH]c2ccccc12)NC(=O)[C@H](CCCNC(=N)N)NC(=O)[C@@H](N)[C@@H](C)O)C(=O)N[C@@H](CCCCN)C(=O)N[C@@H](C)C(=O)N[C@@H](CCCCN)C(=O)N[C@@H](C)C(=O)N[C@H](C(=O)N[C@@H](CCC(=O)O)C(=O)N[C@@H](CC(C)C)C(=O)N[C@@H](CCCNC(=N)N)C(=O)N[C@H](C(=O)N[C@@H](CS)C(=O)N[C@@H](CS)C(=O)N[C@@H](C)C(=O)N[C@@H](CCCNC(=N)N)C(=O)N[C@@H](CCCNC(=N)N)C(=O)N[C@@H](CCCCN)C(=O)N[C@@H](CCCNC(=N)N)C(=O)O)C(C)C)[C@@H](C)O [HoSa2] (H-TRWEAMKAKATELRVCCARRKR-OH; N-terminus and C-terminus assumed)	> 128 µg/mL	> 128 µg/mL	> 128 µg/mL	> 128 µg/mL				
CSCC[C@H](NC(=O)CNC(=O)[C@H](CO)NC(=O)[C@H](CCCNC(=N)N)NC(=O)[C@@H](NC(=O)[C@H](CO)NC(=O)[C@H](Cc1ccccc1)NC(=O)CNC(=O)[C@H](Cc1ccccc1)NC(=O)[C@@H](NC(=O)[C@H](CO)NC(=O)[C@H](CCCNC(=N)N)NC(=O)[C@H](CCCNC(=N)N)NC(=O)[C@@H](NC(=O)[C@H](C)NC(=O)[C@H](CS)NC(=O)[C@H](Cc1ccccc1)NC(=O)[C@H](CCC(N)=O)NC(=O)[C@H](C)NC(=O)[C@H](CCCNC(=N)N)NC(=O)CNC(=O)[C@H](C)NC(=O)[C@H](Cc1ccc(O)cc1)NC(=O)[C@H](C)NC(=O)[C@H](Cc1c[nH]c2ccccc12)NC(=O)[C@H](CCC(N)=O)NC(=O)[C@H](CO)NC(=O)[C@H](Cc1c[nH]c2ccccc12)NC(=O)[C@@H](N)CCCNC(=N)N)C(C)C)C(C)C)C(C)C)C(=O)N[C@H](C(=O)N[C@@H](CS)C(=O)N[C@@H](CCCNC(=N)N)C(=O)N1CCC[C@H]1C(=O)N[C@@H](CCCNC(=N)N)C(=O)N[C@@H](CCCNC(=N)N)C(=O)O)C(C)C [MuMu1] (H-RWSQWAYAGRAQFCAVRRSVFGFSVRSGMVCRPRR-OH; N-terminus and C-terminus assumed)	≥ 128 µg/mL		> 128 µg/mL	> 128 µg/mL				
CC[C@H](C)[C@H](NC(=O)[C@H](CC(C)C)NC(=O)[C@H](CC(=O)O)NC(=O)[C@H](CCCNC(=N)N)NC(=O)[C@H](CO)NC(=O)[C@H](CS)NC(=O)[C@H](Cc1c[nH]cn1)NC(=O)[C@H](Cc1c[nH]cn1)NC(=O)[C@H](Cc1c[nH]cn1)NC(=O)[C@H](Cc1ccc(O)cc1)NC(=O)[C@H](CC(C)C)NC(=O)[C@H](Cc1ccccc1)NC(=O)[C@H](CC(N)=O)NC(=O)[C@H](CC(C)C)NC(=O)[C@H](CC(C)C)NC(=O)[C@H](Cc1ccc(O)cc1)NC(=O)[C@H](CO)NC(=O)[C@H](CS)NC(=O)[C@@H](NC(=O)[C@H](Cc1c[nH]c2ccccc12)NC(=O)[C@H](Cc1ccccc1)NC(=O)[C@@H](NC(=O)[C@H](Cc1c[nH]c2ccccc12)NC(=O)[C@H](CC(N)=O)NC(=O)[C@H](CCCCN)NC(=O)[C@H](C)NC(=O)[C@H](Cc1c[nH]c2ccccc12)NC(=O)[C@H](CC(=O)O)NC(=O)[C@H](Cc1c[nH]c2ccccc12)NC(=O)[C@H](C)N)C(C)C)[C@@H](C)O)C(=O)N[C@@H](CCCNC(=N)N)C(=O)N[C@@H](CCCNC(=N)N)C(=O)O [ScPo1] (H-AWDWAKNWVFWTCSYLLNFLYHHHCSRDLIRR-OH; N-terminus and C-terminus assumed)	> 128 µg/mL	> 128 µg/mL	> 128 µg/mL	> 128 µg/mL				
ARLDVAAEFRKKWNKWALSRGKR [SuSc1]					128 µg/mL	> 128 µg/mL	> 128 µg/mL	
DLWFGLKTEGELAFVKRTIFDVIYKSAKRKR [ArTh10]	> 128 µg/mL	> 128 µg/mL	> 128 µg/mL	> 128 µg/mL				
FLEKPPGPLGARPLGGK [MuMu4, putative AMP mined from UniProt Q9Z0L3, Mus musculus]					> 128 µg/mL	> 128 µg/mL	> 128 µg/mL	> 128 µg/mL
FMRFGKRFMRFGRFGKSAEVENNIQIAAKQS [LySt2]	> 128 µg/mL	> 128 µg/mL	> 128 µg/mL	> 128 µg/mL				
FWNLNKKKKFFYKTVKNSIGQVILRDMSNN [DiDi2]	16 µg/mL	16 µg/mL	> 128 µg/mL	> 128 µg/mL				
GLIKRIIRQKR [GaGa2]	128 µg/mL		> 128 µg/mL					
GLQKLINKIKSQMSRFSTKTNKICGP [HoSa1]	16 µg/mL	16 to 32 µg/mL	128 µg/mL					
GRGRPKGRGRGRPRGRPRGSKR [GoGo1]					64 µg/mL	> 128 µg/mL	> 128 µg/mL	
GVLKKVIRHKR [HoSa6, putative AMP mined from UniProt P24821, Q29116; Homo sapiens, Sus scrofa]					> 128 µg/mL	> 128 µg/mL	> 128 µg/mL	> 128 µg/mL
QFFLPMILRLYVSRLFISKL [CaGl2, putative AMP mined from UniProt P05040, Candida glabrata]					> 128 µg/mL	> 128 µg/mL	> 128 µg/mL	> 128 µg/mL
QVWKRR [HoSa8, putative AMP mined from UniProt Q9BXP8, Homo sapiens]					> 128 µg/mL	> 128 µg/mL	> 128 µg/mL	> 128 µg/mL
RFGRFLRKIRRFRPKVTITIQGSARFG [Chicken CATH-2, reference compound]	8 to 16 µg/mL	8 to 16 µg/mL	32 µg/mL	32 µg/mL				
RIRGHTIKG [DrMe6, putative AMP mined from UniProt O46201, Drosophila melanogaster]					> 128 µg/mL	> 128 µg/mL	> 128 µg/mL	> 128 µg/mL
RSIIRNGIRTLTWRKETKRKKK [ArTh11]	64 to 128 µg/mL				64 to 128 µg/mL	> 128 µg/mL	> 128 µg/mL	
VLKKSEIRIDFISRTILHI [MoIn1, putative AMP mined from UniProt Q09WW0, Morus indica]						> 128 µg/mL	> 128 µg/mL	
